21 compounds from PubChem BioAssay (NCI) can be followed below.

Among the test systems are HOP-62 NSCLC; OVCAR-5 ovarian; RPMI-8226 leukemia; CAKI-1 renal; SW-620 colon; NCI-H522 lung; HCC-2998 colon; MDA-MB-231 breast; K-562 leukemia; HCT-116 colon.
Test in all cases: growth of human tumour cells (NCI), 48 h

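Following 48 hours of exposure in 96-well plates, responses at five concentrations were used to interpolate endpoints linearly. TGI is the concentration that stops growth completely.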

Consider `O=[N+]([O-])c1ccc2c(c1)c(OCc1ccccc1)nn2Cc1ccccc1`, for which the TGI in the experiment on HOP-62 NSCLC, in the experiment with OVCAR-5 ovarian, in the experiment with RPMI-8226 leukemia, in the experiment with CAKI-1 renal, in the experiment with SW-620 colon and in the experiment on NCI-H522 lung was greater than 100 µM each time. Further, the TGI in the experiment with HCC-2998 colon, in the experiment on MDA-MB-231 breast and in the experiment on K-562 leukemia was greater than 100 µM throughout.
With `COC(=O)c1ccccc1CC1Cc2ccc3c(c2C1=O)CCCC3` (configuration not stated), the TGI in the experiment with HOP-62 NSCLC was greater than 100 µM; with OVCAR-5 ovarian, greater than 100 µM; with RPMI-8226 leukemia, greater than 75.5 µM; with CAKI-1 renal, greater than 100 µM; in the experiment on HCT-116 colon, greater than 100 µM; in the experiment on SW-620 colon, greater than 100 µM. In addition, the TGI with NCI-H522 lung, in the experiment on HCC-2998 colon, in the experiment on MDA-MB-231 breast and in the experiment on K-562 leukemia was greater than 100 µM in each case.
Regarding `c1csc(-c2ccc(-c3cccc4nsnc34)s2)c1`, the TGI with HOP-62 NSCLC, in the experiment with OVCAR-5 ovarian, in the experiment with RPMI-8226 leukemia, with CAKI-1 renal, in the experiment with HCT-116 colon and in the experiment on SW-620 colon was greater than 100 µM in each case. The TGI in the experiment with NCI-H522 lung, with HCC-2998 colon, in the experiment on MDA-MB-231 breast and with K-562 leukemia was greater than 100 µM each time.
For the compound `COc1ccc(-c2c(C#N)c(-c3ccc(C)cc3)n(NS(=O)(=O)c3ccc(C)cc3)c(=O)c2C#N)cc1`, the TGI in the experiment with HOP-62 NSCLC was greater than 100 µM; in the experiment with OVCAR-5 ovarian it was greater than 100 µM; in the experiment on RPMI-8226 leukemia, 46.3 µM; with CAKI-1 renal, greater than 100 µM; with HCT-116 colon, greater than 100 µM; in the experiment with SW-620 colon, greater than 100 µM. Further, the TGI in the experiment on NCI-H522 lung, in the experiment with HCC-2998 colon, with MDA-MB-231 breast and with K-562 leukemia was greater than 100 µM each time.
On to `Cc1ccc(-c2n[nH]c(=O)n2N2C(=O)c3ccccc3C2=O)cc1`, for which the TGI with HOP-62 NSCLC, in the experiment on OVCAR-5 ovarian, in the experiment with RPMI-8226 leukemia, in the experiment on CAKI-1 renal, in the experiment with HCT-116 colon and in the experiment with SW-620 colon was greater than 100 µM each time. Also, the TGI with NCI-H522 lung, in the experiment with HCC-2998 colon, with MDA-MB-231 breast and in the experiment on K-562 leukemia was greater than 100 µM each time.
Turning to `O=C1/C(=C/c2ccccc2)N=C2Sc3c(nc[nH]c3=O)N12`, the TGI in the experiment with HOP-62 NSCLC, in the experiment on OVCAR-5 ovarian, in the experiment on RPMI-8226 leukemia, in the experiment on CAKI-1 renal, in the experiment on HCT-116 colon and with SW-620 colon was greater than 100 µM in each case. For the same compound, the TGI in the experiment on NCI-H522 lung is greater than 100 µM; in the experiment on HCC-2998 colon, greater than 100 µM; in the experiment on MDA-MB-231 breast it was greater than 100 µM; with K-562 leukemia, 83.5 µM.
As to `CCOC(=O)C1(C/C=C/CBr)Cc2ccccc2C1=O` (configuration not stated), the TGI in the experiment on HOP-62 NSCLC was 14.8 µM; in the experiment on OVCAR-5 ovarian it was 20.1 µM; in the experiment with RPMI-8226 leukemia, 4.88 µM; in the experiment with CAKI-1 renal it was 7.27 µM; in the experiment with HCT-116 colon it was 15.8 µM; with SW-620 colon, 7.06 µM. For the same compound, the TGI worked out at 3.11 µM with NCI-H522 lung, 21.3 µM in the experiment with HCC-2998 colon, 28.9 µM in the experiment with MDA-MB-231 breast and 4.84 µM with K-562 leukemia.
With `Cc1ccc(Cl)c2[nH]c(-c3ccccc3)cc(=O)c12`, the TGI in the experiment on HOP-62 NSCLC, with OVCAR-5 ovarian, in the experiment on RPMI-8226 leukemia, in the experiment on HCT-116 colon, with SW-620 colon and in the experiment with NCI-H522 lung was greater than 100 µM in each case. The TGI in the experiment with HCC-2998 colon, with MDA-MB-231 breast and in the experiment with K-562 leukemia was greater than 100 µM each time.
Consider `CC1(C)OC(=O)N(c2ccccc2)C12C=Cc1cc([N+](=O)[O-])cc([N+](=O)[O-])c1O2` (configuration not stated), for which the TGI in the experiment on HOP-62 NSCLC, in the experiment on OVCAR-5 ovarian, in the experiment with RPMI-8226 leukemia, in the experiment with CAKI-1 renal, with HCT-116 colon and with SW-620 colon was greater than 100 µM in each case. For the same compound, the TGI in the experiment with NCI-H522 lung, in the experiment on HCC-2998 colon, in the experiment on MDA-MB-231 breast and with K-562 leukemia was greater than 100 µM throughout.
With `COc1ccc(COCCOCc2nc(C#N)c(N)o2)cc1`, the TGI in the experiment on HOP-62 NSCLC, with OVCAR-5 ovarian, in the experiment on RPMI-8226 leukemia, in the experiment with CAKI-1 renal, in the experiment with HCT-116 colon and with SW-620 colon was greater than 100 µM each time. Further, the TGI was 75.8 µM in the experiment with NCI-H522 lung, greater than 100 µM in the experiment on HCC-2998 colon, greater than 100 µM in the experiment on MDA-MB-231 breast and greater than 100 µM in the experiment with K-562 leukemia.
For the compound `O=c1c2cc([N+](=O)[O-])cnc2sn1-c1ccc([N+](=O)[O-])cc1`, the TGI in the experiment on HOP-62 NSCLC was greater than 100 µM; in the experiment on OVCAR-5 ovarian it was greater than 100 µM; in the experiment on RPMI-8226 leukemia, 81.2 µM; in the experiment on HCT-116 colon, 83.9 µM; with SW-620 colon, greater than 100 µM; in the experiment on NCI-H522 lung, 25.7 µM. Also, the TGI in the experiment with HCC-2998 colon is greater than 100 µM; with MDA-MB-231 breast, 53.6 µM.
In the case of `N#Cc1c(N2CCCC2)ncn(-c2ccccc2)c1=O`, the TGI in the experiment with HOP-62 NSCLC, with OVCAR-5 ovarian, with RPMI-8226 leukemia, in the experiment with CAKI-1 renal, in the experiment with HCT-116 colon and with SW-620 colon was greater than 100 µM each time. Besides, the TGI with NCI-H522 lung, in the experiment with HCC-2998 colon, in the experiment with MDA-MB-231 breast and in the experiment with K-562 leukemia was greater than 100 µM throughout.
In the case of `COc1ccc(C2CC(c3c(O)ccc4ccccc34)=NN2C(C)=O)cc1OC` (configuration not stated), the TGI in the experiment with HOP-62 NSCLC is 94.4 µM; with OVCAR-5 ovarian, greater than 100 µM; with RPMI-8226 leukemia, 54.4 µM; in the experiment with CAKI-1 renal, greater than 100 µM; in the experiment with HCT-116 colon, 28.6 µM; in the experiment with SW-620 colon it was greater than 100 µM. Moreover, the TGI in the experiment on NCI-H522 lung was greater than 100 µM; with HCC-2998 colon it was 54.3 µM; in the experiment on MDA-MB-231 breast it was 56.5 µM; in the experiment with K-562 leukemia, 43.8 µM.
In the case of `O=c1[nH]c(Nc2cccc(CC(F)(F)F)c2)nc2nc[nH]c12`, the TGI in the experiment on HOP-62 NSCLC, in the experiment on OVCAR-5 ovarian, in the experiment with RPMI-8226 leukemia, with CAKI-1 renal, in the experiment with HCT-116 colon and in the experiment on SW-620 colon was greater than 100 µM each time. Further, the TGI with NCI-H522 lung, in the experiment on HCC-2998 colon and in the experiment on MDA-MB-231 breast was greater than 100 µM each time.
In the case of `Cc1ccc(C(=O)O)cc1S(=O)(=O)Nn1cnc2ccc(S(=O)(=O)Nc3ccccc3C(=O)O)cc2c1=O`, the TGI with HOP-62 NSCLC, in the experiment on OVCAR-5 ovarian, in the experiment with RPMI-8226 leukemia, in the experiment on CAKI-1 renal, in the experiment on HCT-116 colon and with SW-620 colon was greater than 100 µM in each case. Moreover, the TGI in the experiment with NCI-H522 lung, in the experiment on HCC-2998 colon, in the experiment with MDA-MB-231 breast and in the experiment with K-562 leukemia was greater than 100 µM each time.
As to `Cc1cn2c(/C=N/N=C(N)N)c(-c3cccc([N+](=O)[O-])c3)nc2s1`, the TGI is 5.5 µM with OVCAR-5 ovarian; greater than 100 µM in the experiment on RPMI-8226 leukemia; 6.06 µM in the experiment with CAKI-1 renal; greater than 100 µM in the experiment with HCT-116 colon; 2.7 µM in the experiment on SW-620 colon; 3.91 µM in the experiment on NCI-H522 lung. The TGI in the experiment with HCC-2998 colon came out at 2.83 µM; in the experiment on MDA-MB-231 breast, 2.71 µM.
`[N-]=[N+]=NC[C@H]1OCO[C@H](CN=[N+]=[N-])[C@@H](OCCOCCCl)[C@@H]1OCCOCCCl`: the TGI with HOP-62 NSCLC, in the experiment with RPMI-8226 leukemia, in the experiment on CAKI-1 renal, in the experiment with HCT-116 colon, in the experiment on SW-620 colon and with NCI-H522 lung was greater than 100 µM each time. In addition, the TGI with HCC-2998 colon, with MDA-MB-231 breast and in the experiment on K-562 leukemia was greater than 100 µM each time.
Consider `N#Cc1c(-c2ccccc2)/c(=C\Nc2cccc(C(F)(F)F)c2)c(=O)n2c1nc1ccccc12`, for which the TGI was greater than 100 µM in the experiment on HOP-62 NSCLC; greater than 100 µM in the experiment with OVCAR-5 ovarian; 39.9 µM in the experiment with RPMI-8226 leukemia; 14.2 µM with CAKI-1 renal; greater than 100 µM with HCT-116 colon; greater than 100 µM in the experiment on SW-620 colon. Besides, the TGI with NCI-H522 lung was 32.1 µM; with HCC-2998 colon it was greater than 100 µM; in the experiment on MDA-MB-231 breast, greater than 100 µM.
For `O=C1CCCc2cc3c(cc21)CC1(Cc2ccccc2C1)C3`, the TGI is 32.6 µM with HOP-62 NSCLC; greater than 100 µM in the experiment with OVCAR-5 ovarian; 25.7 µM in the experiment with RPMI-8226 leukemia; 13.6 µM with HCT-116 colon; 21.5 µM in the experiment with NCI-H522 lung; 39.3 µM in the experiment with HCC-2998 colon. For the same compound, the TGI with MDA-MB-231 breast amounted to 46.6 µM; with K-562 leukemia, 7.74 µM.
Consider `CC1(C)N=[N+]([O-])C1(C)C`, for which the TGI with OVCAR-5 ovarian, with RPMI-8226 leukemia, in the experiment on CAKI-1 renal, in the experiment with HCT-116 colon, with SW-620 colon and with NCI-H522 lung was greater than 100 µM throughout. Besides, the TGI in the experiment with HCC-2998 colon, with MDA-MB-231 breast and with K-562 leukemia was greater than 100 µM in each case.
Consider `Nn1c(-c2ccccc2)nn(C(=O)c2ccccc2)c1=O`, for which the TGI in the experiment with HOP-62 NSCLC, in the experiment with OVCAR-5 ovarian, in the experiment with RPMI-8226 leukemia, in the experiment on HCT-116 colon, in the experiment on SW-620 colon and with NCI-H522 lung was greater than 100 µM throughout. For the same compound, the TGI in the experiment on HCC-2998 colon, in the experiment with MDA-MB-231 breast and in the experiment on K-562 leukemia was greater than 100 µM throughout.
